The values that follow come from patent publication US7879881B2, “Piperidinyl compounds that selectively bind integrins” (Janssen Pharmaceutica NV, priority 2002, dated 2011).

The target in experiment [1] is T1, Human αvβ3 (Homo sapiens, UniProt P05106+P06756).
T1 construct: purchased Chemicon International Inc., Temecula, Calif
Kind of experiment: In Vitro Solid Phase Purified αvβ3 Binding Assay (vitronectin/αvβ3). The note with it: vitronectin binding to immobilized purified human αvβ3, mean ± spread. An outline of the steps:
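Purified human αvβ3 immobilized at 1 μg/ml in Tris buffer with Ca, Mg and Mn; compounds competed with 2 nM vitronectin for 3 h at 37 °C. Bound vitronectin detected by anti-vitronectin antibody and peroxidase ABC, absorbance at 490 nm.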

Experiment [2] concerns the target GP IIb/IIIa (Homo sapiens, UniProt P05106+P08514). The experiment in a line: In Vitro Solid Phase Purified GP IIb/IIIa Binding Assay (biotinylated fibrinogen). The settings on record: biotinylated fibrinogen binding to immobilized purified GP IIb/IIIa, mean ± spread. An outline of the steps:
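Purified GP IIb/IIIa coated overnight at 4° C, blocked with 5% BSA, then incubated with test compound and biotinylated fibrinogen for 2-4 h at RT in modified Tyrodes buffer. Bound fibrinogen detected with avidin-biotin HRP complex and o-phenylenediamine/H2O2 (citrate/phosphate pH 5.3), stopped with 2 N H2SO4.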

Experiment [3] concerns the target T2, human purified αVβ5 (Homo sapiens, UniProt P06756+P18084).
T2 construct: purchased Chemicon International, Inc
Kind of experiment: In Vitro Solid Phase Purified αcβ5 Binding Assay (vitronectin/αVβ5). The note with it: vitronectin binding to immobilized purified human αVβ5, mean ± spread. An outline of the steps: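 Purified human integrin immobilized at 1 μg/ml in Tris buffer with Ca2+, Mg2+, Mn2+ and NaCl, then BSA-blocked. Compounds added just before 2 nM vitronectin, 3 h at 37 °C. Bound vitronectin detected by anti-vitronectin antibody with biotin/peroxidase (ABC) detection at 490 nm.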

Like-named read-outs stand apart in the source and are kept apart here.

T1 sequence (P06756 31-889 limits assumed): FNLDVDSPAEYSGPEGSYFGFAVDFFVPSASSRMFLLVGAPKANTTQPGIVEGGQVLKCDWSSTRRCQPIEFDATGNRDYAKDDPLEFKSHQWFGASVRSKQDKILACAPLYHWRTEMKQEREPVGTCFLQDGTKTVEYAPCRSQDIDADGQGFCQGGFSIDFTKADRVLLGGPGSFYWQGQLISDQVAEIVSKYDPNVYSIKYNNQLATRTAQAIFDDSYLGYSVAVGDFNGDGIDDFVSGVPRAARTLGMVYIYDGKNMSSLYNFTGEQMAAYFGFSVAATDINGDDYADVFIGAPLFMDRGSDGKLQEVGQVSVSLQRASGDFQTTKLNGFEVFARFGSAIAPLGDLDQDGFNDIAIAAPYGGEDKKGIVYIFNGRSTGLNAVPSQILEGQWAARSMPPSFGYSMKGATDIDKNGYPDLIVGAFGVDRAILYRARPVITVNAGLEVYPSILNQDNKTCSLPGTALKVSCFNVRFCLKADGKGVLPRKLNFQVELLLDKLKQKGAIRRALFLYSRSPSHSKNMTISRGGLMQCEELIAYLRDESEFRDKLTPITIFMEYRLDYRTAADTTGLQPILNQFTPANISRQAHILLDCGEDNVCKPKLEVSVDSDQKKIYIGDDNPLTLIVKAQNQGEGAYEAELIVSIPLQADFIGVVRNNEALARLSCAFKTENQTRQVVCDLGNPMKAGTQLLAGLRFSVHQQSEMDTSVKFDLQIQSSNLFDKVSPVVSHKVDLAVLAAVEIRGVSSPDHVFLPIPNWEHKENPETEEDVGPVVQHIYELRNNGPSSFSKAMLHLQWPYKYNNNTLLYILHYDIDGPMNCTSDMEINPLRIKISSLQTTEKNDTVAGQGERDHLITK
T1 sequence (P06756 891-1048 partner limits assumed): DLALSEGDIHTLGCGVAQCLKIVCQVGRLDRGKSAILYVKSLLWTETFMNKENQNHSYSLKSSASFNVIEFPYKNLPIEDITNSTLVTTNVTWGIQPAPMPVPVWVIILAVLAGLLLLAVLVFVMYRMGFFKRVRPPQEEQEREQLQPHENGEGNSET
T1 sequence (P05106 27-788): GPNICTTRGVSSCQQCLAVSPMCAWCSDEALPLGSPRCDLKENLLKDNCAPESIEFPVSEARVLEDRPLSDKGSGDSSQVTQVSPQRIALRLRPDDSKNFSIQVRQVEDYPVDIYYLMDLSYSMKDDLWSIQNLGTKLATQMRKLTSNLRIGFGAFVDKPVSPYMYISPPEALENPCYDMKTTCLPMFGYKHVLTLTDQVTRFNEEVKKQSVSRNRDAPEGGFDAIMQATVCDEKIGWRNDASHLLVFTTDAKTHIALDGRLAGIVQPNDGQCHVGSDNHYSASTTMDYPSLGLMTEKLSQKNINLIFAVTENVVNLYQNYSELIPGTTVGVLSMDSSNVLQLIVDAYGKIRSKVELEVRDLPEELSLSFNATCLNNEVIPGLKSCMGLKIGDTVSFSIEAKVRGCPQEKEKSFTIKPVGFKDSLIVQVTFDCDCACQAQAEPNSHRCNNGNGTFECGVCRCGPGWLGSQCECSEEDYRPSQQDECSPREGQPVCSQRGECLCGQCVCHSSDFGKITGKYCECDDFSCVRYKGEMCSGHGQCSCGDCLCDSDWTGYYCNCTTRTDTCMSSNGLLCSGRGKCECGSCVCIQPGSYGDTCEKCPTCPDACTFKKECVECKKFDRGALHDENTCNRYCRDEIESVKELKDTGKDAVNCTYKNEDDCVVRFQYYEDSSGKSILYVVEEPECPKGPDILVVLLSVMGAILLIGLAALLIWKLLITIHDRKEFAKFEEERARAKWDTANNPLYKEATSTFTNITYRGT
T2 sequence (P06756 31-889 limits assumed): as the sequence (P06756 31-889 limits assumed) above
T2 sequence (P06756 891-1048 partner limits assumed): as the sequence (P06756 891-1048 partner limits assumed) above
T2 sequence (P18084 24-799): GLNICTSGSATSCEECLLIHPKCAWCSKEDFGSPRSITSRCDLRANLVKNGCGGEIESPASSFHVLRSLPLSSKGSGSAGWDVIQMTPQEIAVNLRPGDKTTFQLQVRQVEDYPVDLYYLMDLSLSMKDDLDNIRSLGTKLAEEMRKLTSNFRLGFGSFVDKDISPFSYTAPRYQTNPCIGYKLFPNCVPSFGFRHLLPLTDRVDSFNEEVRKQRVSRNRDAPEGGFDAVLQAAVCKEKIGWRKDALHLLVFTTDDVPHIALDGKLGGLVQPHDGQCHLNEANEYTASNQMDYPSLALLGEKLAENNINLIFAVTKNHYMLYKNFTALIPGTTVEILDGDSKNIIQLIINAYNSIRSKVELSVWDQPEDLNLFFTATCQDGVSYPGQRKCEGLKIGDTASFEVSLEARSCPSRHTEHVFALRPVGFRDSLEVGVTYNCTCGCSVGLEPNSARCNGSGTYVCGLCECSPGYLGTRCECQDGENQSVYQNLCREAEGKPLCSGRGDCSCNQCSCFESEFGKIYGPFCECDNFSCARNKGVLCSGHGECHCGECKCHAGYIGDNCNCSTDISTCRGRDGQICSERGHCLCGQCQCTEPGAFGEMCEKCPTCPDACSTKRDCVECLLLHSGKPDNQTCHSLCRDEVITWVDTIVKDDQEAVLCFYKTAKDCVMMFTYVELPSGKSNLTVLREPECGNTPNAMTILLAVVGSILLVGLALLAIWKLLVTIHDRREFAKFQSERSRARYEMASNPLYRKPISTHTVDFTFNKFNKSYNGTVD
Chain of GP IIb/IIIa (P08514 32-887 limits assumed): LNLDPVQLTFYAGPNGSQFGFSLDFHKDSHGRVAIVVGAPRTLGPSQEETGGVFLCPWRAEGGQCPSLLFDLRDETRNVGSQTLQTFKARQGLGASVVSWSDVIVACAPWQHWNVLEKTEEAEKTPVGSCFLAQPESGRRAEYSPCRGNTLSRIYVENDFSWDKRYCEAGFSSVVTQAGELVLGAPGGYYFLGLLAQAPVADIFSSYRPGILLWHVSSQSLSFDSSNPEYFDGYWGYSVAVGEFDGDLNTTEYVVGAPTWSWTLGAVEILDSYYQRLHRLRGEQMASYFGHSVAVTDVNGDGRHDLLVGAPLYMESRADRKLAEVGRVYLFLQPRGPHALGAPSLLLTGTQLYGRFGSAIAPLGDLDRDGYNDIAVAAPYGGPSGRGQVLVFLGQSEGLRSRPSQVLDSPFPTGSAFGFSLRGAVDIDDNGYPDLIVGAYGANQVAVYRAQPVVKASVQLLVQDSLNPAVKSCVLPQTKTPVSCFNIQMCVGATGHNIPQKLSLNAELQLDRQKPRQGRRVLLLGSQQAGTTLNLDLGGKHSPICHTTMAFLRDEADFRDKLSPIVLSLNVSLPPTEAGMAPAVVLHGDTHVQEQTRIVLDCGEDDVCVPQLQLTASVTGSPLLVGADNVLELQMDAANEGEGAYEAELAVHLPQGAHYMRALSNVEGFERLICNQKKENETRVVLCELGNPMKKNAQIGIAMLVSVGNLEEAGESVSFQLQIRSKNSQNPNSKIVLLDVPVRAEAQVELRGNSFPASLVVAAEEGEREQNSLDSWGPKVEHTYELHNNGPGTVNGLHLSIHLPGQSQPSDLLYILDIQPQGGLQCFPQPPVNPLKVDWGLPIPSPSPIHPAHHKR
Chain of GP IIb/IIIa (P08514 891-1039 partner limits assumed): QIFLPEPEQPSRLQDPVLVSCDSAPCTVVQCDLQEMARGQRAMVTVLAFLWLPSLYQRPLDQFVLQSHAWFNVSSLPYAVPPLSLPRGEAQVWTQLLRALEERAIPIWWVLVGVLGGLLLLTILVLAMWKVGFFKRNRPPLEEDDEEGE
Chain of GP IIb/IIIa (P05106 27-788): as the sequence (P05106 27-788) above

On to `CC(C)(C)C(=O)OCOC(=O)CCCC1CCN(C(=O)CCc2ccc3c(n2)NCCC3)CC1` [Cpd 74, 4-[1-(3-5,6,7,8-Tetrahydro-[1,8]naphthyridin-2-yl-propionyl)-piperidin-4-yl]-butyric acid 2,2-dimethyl-propionyloxymethyl ester], for which the IC50 in experiment [1] (read-out: αvβ3IC50) is 0.193 µM; in experiment [2] (read-out: αIIbβ3 IC50) it was > 50 µM; in experiment [3] (read-out: αvβ5 IC50) it was > 1 µM.
Taken in the same sequence, the figures for `O=C(O)CC(CC1CCN(C(=O)CCc2ccc3c(n2)NCCC3)CC1)c1ccc2ccccc2c1` (stereo not drawn) [Cpd 56, β-(2-naphthalenyl)-1-[1-oxo-3-(5,6,7,8-tetrahydro-1,8-naphthyridin-2-yl)propyl]-4-piperidinebutanoic acid] were 0.0019 ± 0.0006 µM, 39.1 ± 0.785 µM and 0.0245 ± 0.0065 µM.
For `O=C(O)CC(CC1CCN(C(=O)CCc2ccc3c(n2)NCCC3)CC1)c1ccc(F)cc1` (stereo not drawn) [Cpd 33, β-(4-fluorophenyl)-1-[1-oxo-3-(5,6,7,8-tetrahydro-1,8-naphthyridin-2-yl)propyl]-4-piperidinebutanoic acid], in that order: 0.0013 ± 0.0004 µM, > 50 µM and 0.0226 ± 0.0052 µM.
Taken in the same sequence, the figures for `O=C(O)CC(CC1CCN(C(=O)CCc2ccc3c(n2)NCCC3)CC1)c1cccc(F)c1` (single isomer, unassigned) [Cpd 30a, β-(3-fluorophenyl)-1-[1-oxo-3-(5,6,7,8-tetrahydro-1,8-naphthyridin-2-yl)propyl]-4-piperidinebutanoic acid] were 0.0004 ± 0.0002 µM, 2.93 ± 1.86 µM and 0.0019 ± 0.0004 µM.
Turning to `O=C(O)CC(CCC1CCN(C(=O)c2cccc(NC3=NCC(O)CN3)c2)CC1)c1cccnc1` (stereo not drawn) [Cpd 7, β-[2-[1-[3-[(1,4,5,6-Tetrahydro-5-hydroxy-2-pyrimidinyl)amino]benzoyl]-4-piperidinyl]ethyl]-3-pyridinepropanoic acid], the IC50 in experiment [1] (read-out: αvβ3IC50) is 0.0082 ± 0.0014 µM; in experiment [2] (read-out: αIIbβ3 IC50) it was 1.67 ± 0.74 µM; in experiment [3] (read-out: αvβ5 IC50), 0.0395 ± 0.0085 µM.
For `COc1ccc(C(CCC2CCN(C(=O)CCCNc3ccccn3)CC2)CC(=O)O)cn1` (stereo not drawn) [Cpd 25, 6-methoxy-β-[2-[1-[1-oxo-4-(2-pyridinylamino)butyl]-4-piperidinyl]ethyl]-3-pyridinepropanoic acid], in that order: 0.0456 ± 0.0066 µM, 8.67 ± 1.72 µM and 0.773 ± 0.118 µM.
Consider `O=C(O)CC(c1cnc2c(c1)CCCC2)C1CCN(C(=O)CCCc2ccc3c(n2)NCCC3)CC1` (single isomer, unassigned) [Cpd 58a, 5,6,7,8-Tetrahydro-β-[1-[1-oxo-4-(5,6,7,8-tetrahydro-1,8-naphthyridin-2-yl)butyl]-4-piperidinyl]-3-quinolinepropanoic acid], for which the IC50 in experiment [1] (read-out: αvβ3IC50) turned out to be 0.0004 ± 0.0003 µM; in experiment [2] (read-out: αIIbβ3 IC50), 1.44 ± 0.39 µM; in experiment [3] (read-out: αvβ5 IC50) it was 0.0323 ± 0.0082 µM.
Take `COc1ccc(C(CCC2CCN(C(=O)CCc3ccc4c(n3)NCCC4)CC2)CC(=O)O)cn1` (stereo not drawn) [Cpd 21, 6-methoxy-β-[2-[1-[1-oxo-3-(5,6,7,8-tetrahydro-1,8-naphthyridin-2-yl)propyl]-4-piperidinyl]ethyl]-3-pyridinepropanoic acid]: the IC50 in experiment [1] (read-out: αvβ3IC50) came out at 0.028 ± 0.0031 µM; in experiment [2] (read-out: αIIbβ3 IC50) it was 1.8 ± 0.63 µM; in experiment [3] (read-out: αvβ5 IC50), 0.78 µM.
Take `COc1ncc(C(CC(=O)O)CC2CCN(C(=O)CCc3ccc4c(n3)NCCC4)CC2)cn1` (stereo not drawn) [Cpd 48, 2-methoxy-β-[[1-[1-oxo-3-(5,6,7,8-tetrahydro-1,8-naphthyridin-2-yl)propyl]-4-piperidinyl]methyl]-5-pyrimidinepropanoic acid]: the values for the IC50 in experiment [1] (read-out: αvβ3IC50), in experiment [2] (read-out: αIIbβ3 IC50) and in experiment [3] (read-out: αvβ5 IC50) were 0.001 ± 0.0005 µM, 1.21 ± 0.2 µM and 0.0033 ± 0.0014 µM, respectively.
In the case of `O=C(O)CC(CC1CCN(C(=O)CCc2ccc3c(n2)NCCC3)CC1)C1CCOC1` (racemic) [Cpd 62], the IC50 is 0.09 ± 0.002 µM in experiment [1] (read-out: αvβ3IC50), > 50 µM in experiment [2] (read-out: αIIbβ3 IC50) and 0.17 ± 0.081 µM in experiment [3] (read-out: αvβ5 IC50).
For `COc1ccc(C(CC(=O)O)C2CCN(C(=O)CCCc3ccc4c(n3)NCCC4)CC2)cn1` (stereo not drawn) [Cpd 17, 6-methoxy-β-[1-[1-oxo-4-(5,6,7,8-tetrahydro-1,8-naphthyridin-2-yl)butyl]-4-piperidinyl]-3-pyridinepropanoic acid], in that order: 0.0008 ± 0.0001 µM, 6.6 ± 1.42 µM and 0.0313 ± 0.006 µM.
Taken in the same sequence, the figures for `COc1cc(C(CC(=O)O)CC2CCN(C(=O)CCc3ccc4c(n3)NCCC4)CC2)ccc1O` (racemic) [Cpd 76, 3-(4-Hydroxy-3-methoxy-phenyl)-4-[1-(3-5,6,7,8-tetrahydro-[1,8]naphthyridin-2-yl-propionyl)-piperidin-4-yl]-butyric acid] were 0.0018 ± 0.0003 µM, 5.38 µM and 0.0397 ± 0.0121 µM.
For `O=C(O)CC(CC1CCN(C(=O)CCc2ccc3c(n2)NCCC3)CC1)c1cccs1` (racemic) [Cpd 63], in that order: 0.0018 ± 0.0008 µM, 10.2 ± 6.41 µM and 0.007 ± 0.0008 µM.
Regarding `O=C(O)CC(CC1CCN(C(=O)CCc2ccc3c(n2)NCCC3)CC1)c1ccc2c(c1)OCC2` (stereo not drawn) [Cpd 36, β-(2,3-dihydro-6-benzofuranyl)-1-[1-oxo-3-(5,6,7,8-tetrahydro-1,8-naphthyridin-2-yl)propyl]-4-piperidinebutanoic acid], the IC50 came out at 0.0008 ± 6e-05 µM in experiment [1] (read-out: αvβ3IC50), 3.11 ± 0.04 µM in experiment [2] (read-out: αIIbβ3 IC50) and 0.0007 ± 0.0002 µM in experiment [3] (read-out: αvβ5 IC50).
Taken in the same sequence, the figures for `O=C(O)CC(CC1CCN(C(=O)CCc2ccc3c(n2)NCCC3)CC1)C1CNc2ccccc2C1` (single isomer, unassigned) [Cpd 19-1, 1,2,3,4-tetrahydro-β-[[1-[1-oxo-3-(5,6,7,8-tetrahydro-1,8-naphthyridin-2-yl)propyl]-4-piperidinyl]methyl]-3-quinolinepropanoic acid] were 0.0367 µM, > 50 µM and 1.12 µM.
Taken in the same sequence, the figures for `Cc1ncc(C(CC(=O)O)CC2CCN(C(=O)CCc3ccc4c(n3)NCCC4)CC2)cn1` (stereo not drawn) [Cpd 35, 2-methyl-β-[[1-[1-oxo-3-(5,6,7,8-tetrahydro-1,8-naphthyridin-2-yl)propyl]-4-piperidinyl]methyl]-5-pyrimidinepropanoic acid] were 0.0007 ± 0.0004 µM, 0.965 ± 0.07 µM and 0.0007 ± 0.0002 µM.
Taken in the same sequence, the figures for `COc1ccc(C(CC(=O)O)CC2CCN(C(=O)CCc3ccc4c(n3)NCCC4)CC2)cc1` (racemic) [Cpd 60] were 0.001 ± 0.0008 µM, 4.53 ± 2.47 µM and 0.0309 ± 0.0006 µM.
Take `COc1ccc(C(CC(=O)O)CC2CCN(C(=O)CCc3ccc4c(n3)NCCC4)CC2)cc1F` (stereo not drawn) [Cpd 42, β-(3-fluoro-4-methoxyphenyl)-1-[1-oxo-3-(5,6,7,8-tetrahydro-1,8-naphthyridin-2-yl)propyl]-4-piperidinebutanoic acid]: the IC50 in experiment [1] (read-out: αvβ3IC50) stood at 0.0007 ± 0.0003 µM; in experiment [2] (read-out: αIIbβ3 IC50), 5 ± 0.74 µM; in experiment [3] (read-out: αvβ5 IC50), 0.0189 ± 0.0046 µM.
In the case of `O=C(O)CC(CC1CCN(C(=O)CCc2ccc3c(n2)NCCC3)CC1)c1cccc(F)c1` (stereo not drawn) [Cpd 30, β-(3-fluorophenyl)-1-[1-oxo-3-(5,6,7,8-tetrahydro-1,8-naphthyridin-2-yl)propyl]-4-piperidinebutanoic acid], the IC50 in experiment [1] (read-out: αvβ3IC50) is 0.001 ± 0.0002 µM; in experiment [2] (read-out: αIIbβ3 IC50), 14.4 ± 5.98 µM; in experiment [3] (read-out: αvβ5 IC50) it was 0.0028 ± 0.0001 µM.
With `O=C(O)CC(CC1CCN(C(=O)CCCc2ccc3c(n2)NCCC3)CC1)c1cccc(F)c1` (stereo not drawn) [Cpd 31, β-(3-fluorophenyl)-1-[1-oxo-4-(5,6,7,8-tetrahydro-1,8-naphthyridin-2-yl)butyl]-4-piperidinebutanoic acid], the IC50 is 0.033 µM in experiment [1] (read-out: αvβ3IC50), 21.6 ± 4.87 µM in experiment [2] (read-out: αIIbβ3 IC50) and 0.3 µM in experiment [3] (read-out: αvβ5 IC50).
Taken in the same sequence, the figures for `O=C(O)CC(c1cnc2c(c1)CCCC2)C1CCN(C(=O)CCCc2ccc3c(n2)NCCC3)CC1` (single isomer, unassigned) [Cpd 58b, 5,6,7,8-Tetrahydro-β-[1-[1-oxo-4-(5,6,7,8-tetrahydro-1,8-naphthyridin-2-yl)butyl]-4-piperidinyl]-3-quinolinepropanoic acid] were 0.083 ± 0.02 µM, 35.5 µM and 0.576 ± 0.149 µM.
Taken in the same sequence, the figures for `O=C(O)CC(CCC1CCN(C(=O)CCc2ccc3c(n2)NCCC3)CC1)c1cccnc1` (stereo not drawn) [Cpd 8, β-[2-[1-[1-Oxo-3-(5,6,7,8-tetrahydro-1,8-naphthyridin-2-yl)propyl]-4-piperidinyl]ethyl]-3-pyridinepropanoic acid] were 0.0179 ± 0.0034 µM, 1.36 ± 0.43 µM and 0.253 µM.
For `O=C(O)CC(CC1CCN(C(=O)c2cccc(NC3=NCC(O)CN3)c2)CC1)c1ccc2c(c1)OCO2` (stereo not drawn) [Cpd 27, β-(1,3-benzodioxol-5-yl)-1-[3-[(1,4,5,6-tetrahydro-5-hydroxy-2-pyrimidinyl)amino]benzoyl]-4-piperidinebutanoic acid], in that order: 0.048 µM, 1.62 ± 0.56 µM and 0.81 µM.
Regarding `O=C(O)CC(CC1CCN(C(=O)CCc2ccc3c(n2)NCCC3)CC1)c1cnc2c(c1)CCCC2` (racemic) [Cpd 57, 5,6,7,8-tetrahydro-β-[[1-[1-oxo-3-(5,6,7,8-tetrahydro-1,8-naphthyridin-2-yl)propyl]-4-piperidinyl]methyl]-3-quinolinepropanoic acid], the IC50 in experiment [1] (αvβ3IC50 (uM)) worked out at 0.0016 ± 0.0007 µM; in experiment [2] (αIIbβ3 IC50 (uM)) it was 3.04 ± 0.55 µM; in experiment [3] (αvβ5 IC50 (uM)) it was 0.0109 ± 0.0042 µM.
